Key:
[1] = test system: Mycobacterium tuberculosis Erdman (autoluminescent); assay: total FIC50 (Loewe) at 50% inhibition, three-drug combination (log2); higher = more antagonistic
Protocol: (§1)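 DiaMOND equipotent three-drug combination dose responses (10 doses, 1.5- or 2-fold spacing, centred on IC90) against autoluminescent M. tuberculosis Erdman in 8 in vitro models. Read-out is OD600, or luminescence for the intracellular and dormancy models, normalised to untreated wells. Hill-fit Einf, AUC25 and GRinf are potency metrics; FIC50 and FIC90 are total Loewe fractional inhibitory concentrations as log2 (negative = synergy).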

[2] = test system: Mycobacterium tuberculosis Erdman (autoluminescent); assay: total FIC90 (Loewe) at 90% inhibition, three-drug combination (log2); higher = more antagonistic
Protocol: as §1

[3] = test system: Mycobacterium tuberculosis Erdman (autoluminescent); assay: Einf, fitted maximum growth inhibition of three-drug combination (fraction); higher = stronger maximal inhibition
Protocol: as §1

[4] = test system: Mycobacterium tuberculosis Erdman (autoluminescent); assay: AUC25, normalised area under dose response up to IC25 (three-drug combination) (fraction (0-1)); higher = more potent at low dose
Protocol: as §1

[5] = test system: Mycobacterium tuberculosis Erdman (autoluminescent); assay: GRinf, maximum normalised growth rate inhibition (three-drug combination) (unitless (-1 to 1)); higher = less effect (negative = killing)
Protocol: as §1

CC[C@@H](CO)NCCN[C@@H](CC)CO [ethambutol] + NNC(=O)c1ccncc1 [isoniazid] + O=[N+]([O-])c1cn2c(n1)OC[C@@H](OCc1ccc(OC(F)(F)F)cc1)C2 [pretomanid]
Details	AUC25, [4]	Einf, [3]	GRinf, [5]	total FIC50, [1]	total FIC90, [2]
in vitro model: acidic pH 5.7, time point: constant (~7 days, model-specific)	0.121	0.841	-0.764	0.401	–
in vitro model: acidic pH 5.7, time point: terminal (~4-5 doublings, model-specific)	0.0806	0.968	-0.36	0.77	0.544
in vitro model: intracellular J774, time point: constant = terminal	–	0.996	-0.562	–	-0.84

Details	AUC25, [4]	Einf, [3]	GRinf, [5]	total FIC50, [1]	total FIC90, [2]
in vitro model: butyrate, time point: constant (~7 days, model-specific)	0.0954	0.941	-0.0462	0.443	–
in vitro model: butyrate, time point: terminal (~4-5 doublings, model-specific)	0.0496	0.966	-0.0497	0.439	0.012
in vitro model: cholesterol 0.05 mM, time point: constant (~7 days, model-specific)	0.11	0.715	-0.203	0.668	–
in vitro model: cholesterol 0.05 mM, time point: terminal (~4-5 doublings, model-specific)	0.0657	0.858	0.0963	0.823	–
in vitro model: cholesterol-high 0.2 mM, time point: constant (~7 days, model-specific)	0.0675	0.881	-0.113	1.17	–
in vitro model: cholesterol-high 0.2 mM, time point: terminal (~4-5 doublings, model-specific)	0.0388	0.996	-0.623	1.18	1.18
in vitro model: dormancy (butyrate + nitrate, low O2), time point: constant (~7 days, model-specific)	0.162	0.915	0.106	0.0212	–
in vitro model: dormancy (butyrate + nitrate, low O2), time point: terminal (~4-5 doublings, model-specific)	0.105	0.982	-0.213	0.237	0.398
in vitro model: standard 7H9 glycerol, time point: constant = terminal	0.0742	0.924	0.0732	0.498	–
in vitro model: valerate, time point: constant (~7 days, model-specific)	0.109	0.867	0.0667	0.146	–
in vitro model: valerate, time point: terminal (~4-5 doublings, model-specific)	0.0768	0.92	0.0915	0.406	–

CC[C@@H](CO)NCCN[C@@H](CC)CO [ethambutol] + O=[N+]([O-])c1cn2c(n1)OC[C@@H](OCc1ccc(OC(F)(F)F)cc1)C2 [pretomanid] + CO[C@H]1/C=C/O[C@@]2(C)Oc3c(C)c(O)c4c(O)c(c(/C=N/N5CCN(C6CCCC6)CC5)c(O)c4c3C2=O)NC(=O)/C(C)=C\C=C\[C@H](C)[C@H](O)[C@@H](C)[C@@H](O)[C@@H](C)[C@H](OC(C)=O)[C@@H]1C [rifapentine]
Details	AUC25, [4]	Einf, [3]	GRinf, [5]	total FIC50, [1]	total FIC90, [2]
in vitro model: acidic pH 5.7, time point: constant (~7 days, model-specific)	0.109	0.881	-0.167	-0.27	–
in vitro model: acidic pH 5.7, time point: terminal (~4-5 doublings, model-specific)	0.0593	0.965	-0.136	-0.17	-0.213
in vitro model: intracellular J774, time point: constant = terminal	–	0.983	-0.509	–	-1.96

Details	AUC25, [4]	Einf, [3]	GRinf, [5]	total FIC50, [1]	total FIC90, [2]
in vitro model: butyrate, time point: constant (~7 days, model-specific)	0.0719	0.917	0.00142	0.274	–
in vitro model: butyrate, time point: terminal (~4-5 doublings, model-specific)	0.0544	0.96	0.0016	0.212	-0.372
in vitro model: cholesterol 0.05 mM, time point: constant (~7 days, model-specific)	0.103	0.743	-0.355	0.946	–
in vitro model: cholesterol 0.05 mM, time point: terminal (~4-5 doublings, model-specific)	0.0797	0.923	-0.204	1.14	–
in vitro model: cholesterol-high 0.2 mM, time point: constant (~7 days, model-specific)	0.0331	0.825	-0.056	1.15	–
in vitro model: cholesterol-high 0.2 mM, time point: terminal (~4-5 doublings, model-specific)	0.0353	1	-0.701	1.34	1.42
in vitro model: dormancy (butyrate + nitrate, low O2), time point: constant (~7 days, model-specific)	0.115	0.832	0.245	0.472	–
in vitro model: dormancy (butyrate + nitrate, low O2), time point: terminal (~4-5 doublings, model-specific)	0.0993	0.964	-0.137	0.154	0.383
in vitro model: standard 7H9 glycerol, time point: constant = terminal	0.0595	0.912	0.0905	0.054	–
in vitro model: valerate, time point: constant (~7 days, model-specific)	0.0932	0.882	-0.0094	0.185	–
in vitro model: valerate, time point: terminal (~4-5 doublings, model-specific)	0.0526	0.938	0.0245	0.593	0.229

CC[C@@H](CO)NCCN[C@@H](CC)CO [ethambutol] + O=[N+]([O-])c1cn2c(n1)OC[C@@H](OCc1ccc(OC(F)(F)F)cc1)C2 [pretomanid] + CO[C@H]1/C=C/O[C@@]2(C)Oc3c(C)c(O)c4c(O)c(c(/C=N/N5CCN(C)CC5)c(O)c4c3C2=O)NC(=O)/C(C)=C\C=C\[C@H](C)[C@H](O)[C@@H](C)[C@@H](O)[C@@H](C)[C@H](OC(C)=O)[C@@H]1C [rifampicin]
Details	AUC25, [4]	Einf, [3]	GRinf, [5]	total FIC50, [1]	total FIC90, [2]
in vitro model: acidic pH 5.7, time point: constant (~7 days, model-specific)	0.116	0.896	-0.0878	-0.207	–
in vitro model: acidic pH 5.7, time point: terminal (~4-5 doublings, model-specific)	0.0422	0.965	-0.0884	-0.118	-0.7
in vitro model: intracellular J774, time point: constant = terminal	–	0.979	-0.423	–	-2.45

Details	AUC25, [4]	Einf, [3]	GRinf, [5]	total FIC50, [1]	total FIC90, [2]
in vitro model: butyrate, time point: constant (~7 days, model-specific)	0.0766	0.908	0.0166	0.153	–
in vitro model: butyrate, time point: terminal (~4-5 doublings, model-specific)	0.075	0.968	-0.0125	-0.0702	-0.43
in vitro model: cholesterol 0.05 mM, time point: constant (~7 days, model-specific)	0.123	0.753	-0.232	0.599	–
in vitro model: cholesterol 0.05 mM, time point: terminal (~4-5 doublings, model-specific)	0.0708	0.852	0.216	0.863	–
in vitro model: cholesterol-high 0.2 mM, time point: constant (~7 days, model-specific)	0.0614	0.857	-0.0797	1.05	–
in vitro model: cholesterol-high 0.2 mM, time point: terminal (~4-5 doublings, model-specific)	0.0471	0.992	-0.568	1.06	0.833
in vitro model: dormancy (butyrate + nitrate, low O2), time point: constant (~7 days, model-specific)	0.102	0.883	0.315	-0.71	–
in vitro model: dormancy (butyrate + nitrate, low O2), time point: terminal (~4-5 doublings, model-specific)	0.085	0.993	-0.16	-0.599	-0.673
in vitro model: standard 7H9 glycerol, time point: constant = terminal	0.0649	0.919	0.0317	-0.222	–
in vitro model: valerate, time point: constant (~7 days, model-specific)	0.0577	0.876	0.0174	0.363	–
in vitro model: valerate, time point: terminal (~4-5 doublings, model-specific)	0.033	0.931	0.0322	0.443	-0.575

From the supplement of paper PMC8617591
